Test results as given in patent US20220296613A1, “FOOD-INDEPENDENT DOSING OF CV-10155 TO TREAT GABAA DISORDERS” (priority 2021, published 2022).
Read-outs that look alike come from different tables or passages of the source.

Tests used:
[1] = dog, in vivo, 1 mg/kg
α1β2γ2 GABAA receptors = α1β2γ2 GABAA receptors (Homo sapiens, UniProt P14867+P47870); test: Synchropatch electrophysiology, potentiation of synaptic GABAA receptors; assay type: cell-based; conditions: for Emax: α1β2γ2 Synaptic receptors, Synchropatch electrophysiology, read-out: Emax - efficacy: % of potentiation
Chain of α1β2γ2 GABAA receptors (P14867 28-456): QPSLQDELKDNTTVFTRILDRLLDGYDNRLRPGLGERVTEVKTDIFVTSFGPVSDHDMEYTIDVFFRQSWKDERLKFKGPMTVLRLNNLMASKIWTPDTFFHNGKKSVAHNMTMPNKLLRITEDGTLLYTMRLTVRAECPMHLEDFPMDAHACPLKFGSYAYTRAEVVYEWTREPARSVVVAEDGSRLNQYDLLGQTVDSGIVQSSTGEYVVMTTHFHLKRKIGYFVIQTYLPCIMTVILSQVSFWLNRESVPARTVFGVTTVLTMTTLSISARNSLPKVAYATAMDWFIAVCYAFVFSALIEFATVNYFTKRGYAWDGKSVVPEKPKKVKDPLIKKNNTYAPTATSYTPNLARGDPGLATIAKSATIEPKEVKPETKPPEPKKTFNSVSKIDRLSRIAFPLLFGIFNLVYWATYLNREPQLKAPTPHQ
Chain of α1β2γ2 GABAA receptors (P47870 25-512 limits assumed): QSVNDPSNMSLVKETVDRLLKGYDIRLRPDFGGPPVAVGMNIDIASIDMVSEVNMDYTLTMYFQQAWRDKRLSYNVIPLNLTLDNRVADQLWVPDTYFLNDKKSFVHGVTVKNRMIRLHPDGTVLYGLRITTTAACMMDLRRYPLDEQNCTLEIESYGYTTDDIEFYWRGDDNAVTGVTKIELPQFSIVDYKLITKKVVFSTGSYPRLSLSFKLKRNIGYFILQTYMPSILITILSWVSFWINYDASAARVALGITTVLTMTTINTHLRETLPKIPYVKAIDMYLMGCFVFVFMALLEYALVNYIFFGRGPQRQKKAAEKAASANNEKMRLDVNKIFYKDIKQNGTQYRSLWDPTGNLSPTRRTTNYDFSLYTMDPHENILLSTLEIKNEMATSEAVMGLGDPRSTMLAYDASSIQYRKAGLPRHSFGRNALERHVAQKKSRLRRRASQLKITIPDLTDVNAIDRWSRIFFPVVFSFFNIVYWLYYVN
Chain of α1β2γ2 GABAA receptors (P18507 40-475 partner): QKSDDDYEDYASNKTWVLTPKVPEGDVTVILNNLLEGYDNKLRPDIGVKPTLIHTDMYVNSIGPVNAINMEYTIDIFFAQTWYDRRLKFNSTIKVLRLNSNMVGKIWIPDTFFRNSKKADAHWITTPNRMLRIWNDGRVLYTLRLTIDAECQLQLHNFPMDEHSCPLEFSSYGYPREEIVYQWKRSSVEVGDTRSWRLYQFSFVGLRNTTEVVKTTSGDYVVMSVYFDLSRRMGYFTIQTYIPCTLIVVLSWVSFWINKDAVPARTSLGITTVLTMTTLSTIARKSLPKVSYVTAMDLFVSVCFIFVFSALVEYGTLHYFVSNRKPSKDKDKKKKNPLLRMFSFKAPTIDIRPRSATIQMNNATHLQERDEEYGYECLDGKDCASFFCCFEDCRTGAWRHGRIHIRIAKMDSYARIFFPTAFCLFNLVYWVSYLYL

α4β3δ GABAA receptors = α4β3δ GABAA receptors (Homo sapiens, UniProt P28472+P48169); test: Synchropatch electrophysiology, potentiation of extra synaptic GABAA receptors; assay type: cell-based
Chain of α4β3δ GABAA receptors (P48169 36-554): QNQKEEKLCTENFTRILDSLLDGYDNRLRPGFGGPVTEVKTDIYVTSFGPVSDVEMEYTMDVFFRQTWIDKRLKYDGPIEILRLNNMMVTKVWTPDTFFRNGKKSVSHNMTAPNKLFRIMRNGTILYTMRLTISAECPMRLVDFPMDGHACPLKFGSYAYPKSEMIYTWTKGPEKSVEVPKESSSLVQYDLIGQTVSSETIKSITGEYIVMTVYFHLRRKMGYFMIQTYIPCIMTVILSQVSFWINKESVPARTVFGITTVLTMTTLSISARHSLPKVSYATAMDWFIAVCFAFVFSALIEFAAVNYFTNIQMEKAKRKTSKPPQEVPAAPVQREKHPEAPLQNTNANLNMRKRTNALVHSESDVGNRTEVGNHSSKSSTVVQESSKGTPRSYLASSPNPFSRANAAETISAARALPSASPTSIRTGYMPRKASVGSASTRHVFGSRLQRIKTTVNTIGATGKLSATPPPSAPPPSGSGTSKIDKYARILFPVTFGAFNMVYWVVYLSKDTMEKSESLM
Chain of α4β3δ GABAA receptors (P28472 26-473): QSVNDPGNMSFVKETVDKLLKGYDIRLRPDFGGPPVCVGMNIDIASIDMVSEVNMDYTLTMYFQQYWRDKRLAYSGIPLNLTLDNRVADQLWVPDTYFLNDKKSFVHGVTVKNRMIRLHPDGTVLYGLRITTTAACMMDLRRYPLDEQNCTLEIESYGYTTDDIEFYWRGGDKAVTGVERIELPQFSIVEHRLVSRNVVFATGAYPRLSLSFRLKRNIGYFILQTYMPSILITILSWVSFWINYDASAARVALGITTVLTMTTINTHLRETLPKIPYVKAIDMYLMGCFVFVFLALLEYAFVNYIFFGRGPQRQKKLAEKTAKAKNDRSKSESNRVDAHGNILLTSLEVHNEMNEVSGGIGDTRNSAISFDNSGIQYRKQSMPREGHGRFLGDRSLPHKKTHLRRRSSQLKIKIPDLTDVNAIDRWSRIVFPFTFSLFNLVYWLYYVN
Chain of α4β3δ GABAA receptors (O14764 25-452 partner): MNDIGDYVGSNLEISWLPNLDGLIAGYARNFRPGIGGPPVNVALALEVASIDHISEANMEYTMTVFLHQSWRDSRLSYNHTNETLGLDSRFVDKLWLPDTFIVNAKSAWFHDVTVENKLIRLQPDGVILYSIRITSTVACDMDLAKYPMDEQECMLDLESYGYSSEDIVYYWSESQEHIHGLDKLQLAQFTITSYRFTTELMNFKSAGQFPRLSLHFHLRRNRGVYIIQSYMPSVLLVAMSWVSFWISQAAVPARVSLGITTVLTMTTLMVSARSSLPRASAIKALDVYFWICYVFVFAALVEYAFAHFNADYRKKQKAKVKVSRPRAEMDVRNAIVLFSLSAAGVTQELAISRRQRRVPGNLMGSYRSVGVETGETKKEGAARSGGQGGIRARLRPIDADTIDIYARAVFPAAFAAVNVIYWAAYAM

Forced swim test = Forced swim test - Depression; assay type: in vivo, rodent; conditions: preclinical animal model
[2] = humans, cited from earlier work
[3] = humans, cited from earlier work; remark: listed apart in the source
[4] = humans, cited from earlier work; remark: listed apart in the source
[5] = 30 mg, day 7 MAD (MTD), morning dosing

## C[C@@]1(O)CC[C@@]2(C)[C@@H](CC[C@@H]3[C@@H]2CC[C@]2(C)[C@@H](C(=O)Cn4cc(C#N)cn4)CC[C@@H]32)C1 [CV-10155 (30% HPbCD)]
[1]; iv
  Cmax: 1732 ng/mL
  T½: 13.93 h
[1]; po
  Cmax: 510 ng/mL
  Tmax: 0.75 h
  T½: 13.62 h

## C[C@@]1(O)CC[C@@]2(C)[C@@H](CC[C@@H]3[C@@H]2CC[C@]2(C)[C@@H](C(=O)Cn4cc(C#N)cn4)CC[C@@H]32)C1 [CV-10155 (Labrosol)]
[1]; po
  Cmax: 266 ng/mL
  Tmax: 0.625 h
  T½: 18.93 h

## CC(=O)[C@H]1CC[C@H]2[C@@H]3CC[C@H]4C[C@](C)(O)CC[C@]4(C)[C@H]3CC[C@]12C [Ganaxolone, ganaxolone]
α1β2γ2 GABAA receptors
  EC50: 90 nM
  Emax: 745%
α4β3δ GABAA receptors
  EC50: 213 nM

## C[C@@]1(O)CC[C@H]2[C@H](CC[C@@H]3[C@@H]2CC[C@]2(C)[C@@H](C(=O)Cn4cc(C#N)cn4)CC[C@@H]32)C1 [Sage-217]
α1β2γ2 GABAA receptors
  EC50: 189 nM
  Emax: 1000%
α4β3δ GABAA receptors
  EC50: 148 nM
Forced swim test
  Forced swim test - Depression: doses tested, * = significantly efficacious dose: 1 - 3* mg/kg
[2]; 20 mg (n-188)
  Any adverse event, %: 50.0%
  Diarrhea, %: 5.9%
  Dizziness, %: 7.4%
  Fatigue, %: 1.6%
  Headache, %: 11.2%
  Nausea, %: 5.3%
  Sedation, %: 5.9%
  Somnolence, %: 5.9%
[2]; 30 mg (n-192)
  Any adverse event, %: 54.2%
  Diarrhea, %: 6.3%
  Dizziness, %: 5.7%
  Fatigue, %: 6.8%
  Headache, %: 6.3%
  Nausea, %: 3.6%
  Sedation, %: 4.7%
  Somnolence, %: 6.8%
[3]; 30 mg daily in the evening in a fed state
  ratio of Cmax/trough on day 7: 5.88
[3]; [5]
  AUC0_inf: 833.2 h*ng/m1
  Cmax: 115.2 ng/mL
  Cmin: 12.46 ng/mL
  Ratio (Cmax/Cmin): 9.24
  T1/2: 15.27 h
  Tmax: 1 h
[3]; morning dosing
  MTD, multiple ascending dose (MAD): SAGE-217 30mg
[4]; 55 mg SAD MTD
  AUC(0-inf): 1633 ng·h/mL
  Cmax: 149.9 ng/mL
  T1/2: 17.02 h
  Tmax: 1.24 h
[4]
  MTD, single ascending dose (SAD): SAGE-217 55 mg SAD MTD
